From US6737383B1, “Herbicidal oxadiazolidines” (priority 1999, dated 2004)

What was measured:
bedstraw = experiment: Test B pre/postemergence bedstraw; type: in vivo, Galium aparine
Method in brief: (§1)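 Herbicidal effect was estimated by eye on a ten-point control scale after plants spent twelve to sixteen days in a greenhouse following soil or foliar treatment. Foliar sprays targeted plants at one to four leaves; all doses were formulated in a non-phytotoxic solvent with surfactant.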

blackgrass = experiment: Test B pre/postemergence blackgrass; type: in vivo, Alopecurus myosuroides
Method in brief: as §1

surinam grass = experiment: Test B pre/postemergence surinam grass; type: in vivo, Brachiaria decumbens
Method in brief: as §1

cocklebur = experiment: Test B pre/postemergence cocklebur; type: in vivo, Xanthium strumarium
Method in brief: as §1

corn = experiment: Test B pre/postemergence corn; type: in vivo, Zea mays
Method in brief: as §1

crabgrass = experiment: Test B pre/postemergence crabgrass; type: in vivo, Digitaria sanguinalis
Method in brief: as §1

pigweed = experiment: Test B pre/postemergence pigweed; type: in vivo, Amaranthus retroflexus
Method in brief: as §1

rape = experiment: Test B pre/postemergence rape; type: in vivo, Brassica napus
Method in brief: as §1

soybean = experiment: Test B pre/postemergence soybean; type: in vivo, Glycine max
Method in brief: as §1

sugar beet = experiment: Test B pre/postemergence sugar beet; type: in vivo, Beta vulgaris
Method in brief: as §1

velvetleaf = experiment: Test B pre/postemergence velvetleaf; type: in vivo, Abutilon theophrasti
Method in brief: as §1

wheat = experiment: Test B pre/postemergence wheat; type: in vivo, Triticum aestivum
Method in brief: as §1

wild oat = experiment: Test B pre/postemergence wild oat; type: in vivo, Avena fatua
Method in brief: as §1

purple nutsedge = experiment: Test B pre/postemergence purple nutsedge; type: in vivo, Cyperus rotundus
Method in brief: as §1

smallflower flatsedge = experiment: Test B flood test smallflower flatsedge; type: in vivo, Cyperus difformis
Method in brief: (§2)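 Plants were grown to the 2-leaf stage before treatment with test chemical, then held in a greenhouse for twelve to sixteen days. Injury was visually rated against untreated controls on a 0–10 scale, where 0 is no effect and 10 is complete control.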

bamyardgrass = experiment: Test B flood test barnyardgrass; type: in vivo, Echinochloa crus-galli
Method in brief: as §2

[1] = Postemergence, Rate 125 g/ha, scale of 0 to 10 where 0 is no effect and 10 is complete control
[2] = Preemergence, Rate 62 g/ha, scale 0 to 10 (0 no effect, 10 complete control)
[3] = Preemergence, Rate 125 g/ha, 0 is no effect, 10 is complete control
[4] = Preemergence, Rate 250 g/ha, scale 0 to 10, 0 is no effect, 10 is complete control
[5] = Preemergence, Rate 500 g/ha, scale 0 to 10 (0 no effect, 10 complete control)
[6] = Rate 250 g/ha, Postemergence, scale 0 to 10, 0 is no effect, 10 is complete control
[7] = Rate 62 g/ha, Postemergence, scale of 0 to 10 where 0 is no effect and 10 is complete control
[8] = Rate 500 g/ha, Postemergence, scale 0 to 10
[9] = Postemergence (flood test species), Rate 125 g/ha, scale of 0 to 10 where 0 is no effect and 10 is complete control
[10] = Rate 62 g/ha, Postemergence section, flood test species, scale of 0 to 10 where 0 is no effect and 10 is complete control
[11] = Rate 250 g/ha, Postemergence (flood test), scale 0 to 10, 0 is no effect, 10 is complete control
[12] = Rate 250 g/ha, Pre-emergence, flood-test species, scale 0 to 10, 0 is no effect, 10 is complete control

## C=C(C)Cn1c(=O)on(C(=O)N(c2ccc(F)cc2)C(C)C)c1=O [Compound 139]
bedstraw; [1]
  Bedstraw plant response rating: 2
bedstraw; [2]
  Bedstraw plant response rating: 0
bedstraw; [3]
  Bedstraw plant response rating (0 to 10 scale): 0
bedstraw; [4]
  Bedstraw plant response rating: 2
bedstraw; [5]
  Bedstraw plant response rating: 9
bedstraw; [6]
  Plant response rating, Bedstraw: 5
bedstraw; Rate 500 g/ha, Postemergence, scale 0 to 10, 0 no effect, 10 complete control
  Bedstraw plant response rating: 5
blackgrass; [1]
  Blackgrass plant response rating: 2
blackgrass; [2]
  Blackgrass plant response rating: 4
blackgrass; [3]
  Blackgrass plant response rating (0 to 10 scale): 6
blackgrass; [4]
  Blackgrass plant response rating: 9
blackgrass; [5]
  Blackgrass plant response rating: 10
blackgrass; [7]
  Blackgrass plant response rating: 2
blackgrass; [6]
  Plant response rating, Blackgrass: 7
blackgrass; [8]
  Blackgrass plant response rating: 8
Surinam grass; [1]
  B. signalgrass plant response rating: 2
Surinam grass; [2]
  B. signalgrass plant response rating: 0
Surinam grass; [3]
  B. signalgrass plant response rating (0 to 10 scale): 2
Surinam grass; [4]
  B. signalgrass plant response rating: 8
Surinam grass; [5]
  B. signalgrass plant response rating: 9
Surinam grass; [7]
  B. signalgrass plant response rating: 2
Surinam grass; [6]
  Plant response rating, B. signalgrass: 6
Surinam grass; Rate 500 g/ha, Postemergence, scale of 0 to 10 where 0 is no effect and 10 is complete control
  B. signalgrass plant response rating: 7
cocklebur; [1]
  Cocklebur plant response rating: 0
cocklebur; [2]
  Cocklebur plant response rating: 0
cocklebur; [3]
  Cocklebur plant response rating (0 to 10 scale): 0
cocklebur; [4]
  Cocklebur plant response rating: 0
cocklebur; [5]
  Cocklebur plant response rating: 0
cocklebur; [7]
  Cocklebur plant response rating: 0
cocklebur; [6]
  Plant response rating, Cocklebur: 2
cocklebur; [8]
  Cocklebur plant response rating: 2
corn; [1]
  Corn plant response rating: 2
corn; [2]
  Corn plant response rating: 0
corn; [3]
  Corn plant response rating (0 to 10 scale): 0
corn; [4]
  Corn plant response rating: 4
corn; [5]
  Corn plant response rating: 7
corn; [7]
  Corn plant response rating: 0
corn; [6]
  Plant response rating, Corn: 2
corn; [8]
  Corn plant response rating: 2
crabgrass; [1]
  Crabgrass plant response rating: 8
crabgrass; [2]
  Crabgrass plant response rating: 7
crabgrass; [3]
  Crabgrass plant response rating (0 to 10 scale): 10
crabgrass; [4]
  Crabgrass plant response rating: 10
crabgrass; [5]
  Crabgrass plant response rating: 10
crabgrass; [7]
  Crabgrass plant response rating: 8
crabgrass; [6]
  Plant response rating, Crabgrass: 9
crabgrass; [8]
  Crabgrass plant response rating: 9
pigweed; [1]
  Redroot pigweed plant response rating: 3
pigweed; [2]
  Redroot pigweed plant response rating: 6
pigweed; [3]
  Redroot pigweed plant response rating (0 to 10 scale): 8
pigweed; [4]
  Redroot pigweed plant response rating: 10
pigweed; [5]
  Redroot pigweed plant response rating: 10
pigweed; [7]
  Redroot pigweed plant response rating: 3
pigweed; [6]
  Plant response rating, Redroot pigweed: 4
pigweed; [8]
  Redroot pigweed plant response rating: 4
rape; [1]
  Rape plant response rating: 2
rape; [2]
  Rape plant response rating: 0
rape; [3]
  Rape plant response rating (0 to 10 scale): 0
rape; [4]
  Rape plant response rating: 4
rape; [5]
  Rape plant response rating: 9
rape; [7]
  Rape plant response rating: 0
rape; [6]
  Plant response rating, Rape: 2
rape; [8]
  Rape plant response rating: 4
soybean; [1]
  Soybean plant response rating: 2
soybean; [2]
  Soybean plant response rating: 0
soybean; [3]
  Soybean plant response rating (0 to 10 scale): 0
soybean; [4]
  Soybean plant response rating: 0
soybean; [5]
  Soybean plant response rating: 2
soybean; [7]
  Soybean plant response rating: 1
soybean; [6]
  Plant response rating, Soybean: 4
soybean; [8]
  Soybean plant response rating: 5
Sugar beet; [1]
  Sugarbeets plant response rating: 0
Sugar beet; [2]
  Sugarbeets plant response rating: 3
Sugar beet; [3]
  Sugarbeets plant response rating (0 to 10 scale): 3
Sugar beet; [4]
  Sugarbeets plant response rating: 4
Sugar beet; [5]
  Sugarbeets plant response rating: 6
Sugar beet; [7]
  Sugarbeets plant response rating: 0
Sugar beet; [6]
  Plant response rating, Sugarbeets: 2
Sugar beet; [8]
  Sugarbeets plant response rating: 2
velvetleaf; [1]
  Velvetleaf plant response rating: 4
velvetleaf; [2]
  Velvetleaf plant response rating: 2
velvetleaf; [3]
  Velvetleaf plant response rating (0 to 10 scale): 3
velvetleaf; [4]
  Velvetleaf plant response rating: 5
velvetleaf; [5]
  Velvetleaf plant response rating: 7
velvetleaf; [7]
  Velvetleaf plant response rating: 2
velvetleaf; [6]
  Plant response rating, Velvetleaf: 5
velvetleaf; [8]
  Velvetleaf plant response rating: 6
wheat; [1]
  Wheat plant response rating: 2
wheat; [2]
  Wheat plant response rating: 0
wheat; [3]
  Wheat plant response rating (0 to 10 scale): 0
wheat; [4]
  Wheat plant response rating: 2
wheat; [5]
  Wheat plant response rating: 4
wheat; [7]
  Wheat plant response rating: 2
wheat; [6]
  Plant response rating, Wheat: 4
wheat; [8]
  Wheat plant response rating: 4
Wild oat; [1]
  Wild oats plant response rating: 2
Wild oat; [2]
  Wild oats plant response rating: 3
Wild oat; [3]
  Wild oats plant response rating (0 to 10 scale): 7
Wild oat; [4]
  Wild oats plant response rating: 8
Wild oat; [5]
  Wild oats plant response rating: 9
Wild oat; [7]
  Wild oats plant response rating: 2
Wild oat; [6]
  Plant response rating, Wild oats: 4
Wild oat; [8]
  Wild oats plant response rating: 4
Purple nutsedge; [1]
  Nutsedge plant response rating: 0
Purple nutsedge; [2]
  Nutsedge plant response rating: 0
Purple nutsedge; [3]
  Nutsedge plant response rating (0 to 10 scale): 0
Purple nutsedge; [4]
  Nutsedge plant response rating: 0
Purple nutsedge; [5]
  Nutsedge plant response rating: 0
Purple nutsedge; [7]
  Nutsedge plant response rating: 0
Purple nutsedge; [6]
  Plant response rating, Nutsedge: 0
Purple nutsedge; [8]
  Nutsedge plant response rating: 4
Smallflower flatsedge; [9]
  S. Flatsedge plant response rating: 0
Smallflower flatsedge; Pre-emergence, Rate 1000 g/ha, scale 0 to 10 (0 no effect, 10 complete control)
  S. Flatsedge plant response rating: 0
Smallflower flatsedge; [10]
  S. Flatsedge plant response rating: 0
Smallflower flatsedge; [11]
  Plant response rating, S. Flatsedge: 0
Smallflower flatsedge; [12]
  S. Flatsedge plant response rating: 0
Smallflower flatsedge; Rate 500 g/ha, Pre-emergence, flood test species, scale 0 to 10 (0 no effect, 10 complete control)
  S. Flatsedge plant response rating: 0
Smallflower flatsedge; Rate 2000 g/ha, Pre-emergence (as headed), scale 0 to 10
  S. Flatsedge plant response rating: 0
bamyardgrass; [9]
  Barnyardgrass plant response rating: 0
bamyardgrass; Rate 31 g/ha, Postemergence section (flood test species), scale 0 to 10
  Barnyardgrass plant response rating: 0
bamyardgrass; [10]
  Barnyardgrass plant response rating: 0
bamyardgrass; [11]
  Plant response rating, Barnyardgrass: 0
bamyardgrass; [12]
  Barnyardgrass plant response rating: 0
bamyardgrass; Rate 500 g/ha, headed Pre-emergence (flood test species), scale 0 to 10 (0 no effect, 10 complete control)
  Plant response rating, Barnyardgrass: 0
bamyardgrass; Rate 1000 g/ha, Pre-emergence (as headed), scale 0 to 10
  Barnyardgrass plant response rating: 0
bamyardgrass; Rate 2000 g/ha, Pre-emergence (as headed), scale 0 to 10, 0 no effect, 10 complete control
  Barnyardgrass plant response rating: 6
